Data published in paper PMC6946680, “Modulation of brain cation-Cl^− cotransport via the SPAK kinase inhibitor ZT-1a” (Nature Communications, 2020).
Several values for one entry are separate records, joined by “and”; a condition that tells them apart may be missing. Identical values can stand only once. Entries after “also recorded” stand apart in the source; their conditions may differ.

Columns and labels:
[1] = tested on: pKCC3 pThr991/pThr1048; assay: Immunoblot of pKCC3 in ischemic mouse brain membrane fractions; settings: for KCC3 / Na-K pumb / pThr991 / KCC3 / pThr991 / Na-K pumb / pThr1048 / KCC3 / pThr1048 / Na-K pumb: Fig 8, individual samples
[2] = tested on: NUAK1; assay: Kinase profiling panel; format: biochemical
Method: (§1) Supplementary Table 2. ZT-1a kinase profiling data6.
(§2) ZT-1a was tested at 10 and 1 µM against a panel of 140 recombinant kinases in an enzymatic
(§3) activity-based assay performed by the International Centre for Kinase Profiling in the MRC
(§4) Protein Phosphorylation and Ubiquitylation Unit. Values represent % residual kinase activity

[3] = tested on: PIM1; assay: Kinase profiling panel; format: biochemical
Method: as §1, §2, §3, §4

[4] = tested on: IR; assay: Kinase profiling panel; format: biochemical
Method: as §1, §2, §3, §4

[5] = tested on: Aurora A; assay: Kinase profiling panel; format: biochemical
Method: as §1, §2, §3, §4

[6] = tested on: DDR2; assay: Kinase profiling panel; format: biochemical
Method: as §1, §2, §3, §4

[7] = tested on: CK2; assay: Kinase profiling panel; format: biochemical
Method: as §1, §2, §3, §4

[8] = tested on: S6K1; assay: Kinase profiling panel; format: biochemical
Method: as §1, §2, §3, §4

[9] = tested on: PKCγ; assay: Kinase profiling panel; format: biochemical
Method: as §1, §2, §3, §4

[10] = tested on: pGSK-3α/β; assay: Immunoblot of phospho-GSK-3α/β in ischemic mouse brain; format: in vivo; settings: for pGSK-3αβ/GAPDH (fold veh-CL): Cytosol; for pGSK-3αβ/GAPDH (fold veh-CL) / pGSK-3αβ/Na K pump (fold veh-CL): Fig S4d; for pGSK-3αβ/Na K pump (fold veh-CL): Membrane
Text: (§5) Cytosol and crude membrane protein
(§6) Expressions of Na+-K+ ATPase
(§7) respectively. d Densitometric analyses of immunoblots.

[11] = tested on: GSK-3β Ser9 phosphorylation; assay: Immunoblot of GSK-3β Ser9 phosphorylation in HEK-293 cells; settings: for GSK3b pSer9 / Actin: Fig S4b
[12] = tested on: pSPAK (pSer373)/pOSR1 (pSer325); assay: Immunoblot of pSPAK/pOSR1 in ischemic mouse brain membrane fractions; settings: for SPAK / Na-K pumb / pSer373 / SPAK: Fig 8, individual samples; for pSPAK pOSR1/Na K pump (fold veh-CL): Membrane, single samples
[13] = tested on: pERK1/2; assay: Immunoblot of phospho-ERK1/2 in ischemic mouse brain; format: in vivo; settings: for pERK/Na K pump (fold veh-CL): Membrane
Text: as §5, §6, §7

[14] = tested on: NKCC1; assay: 86Rb+ uptake assay for NKCC1 activity in HEK-293 cells; format: cell-based; set-up: key to 86Rb+ uptake: 86Rb+ uptake in CPM per mg protein; settings: for 86Rb+ uptake: replicates
Method: Thirty-six hours post transfection, cells were exposed for 30 min to either control isotonic conditions or hypotonic low [Cl^−] conditions (to activate the SPAK/OSR1 pathway), and then treated for an additional 30 min in the same conditions with the indicated ZT-1a concentrations in the presence of 1 mM ouabain and 0.1 mM bumetanide. Ten-minute ^86Rb^+ uptake values were quantified by scintillation counting, normalized per mg protein for each condition, and plotted for both isotonic and hypotonic conditions. ***p < 0.001; **p < 0.01; *p < 0.05; ns—nonsignificant [by one-way ANOVA with post hoc testing (n = 6, error bars represent the mean ± SEM)]. b ^86Rb^+ uptake assays in the presence of ZT-1a measure transport activity of NKCC1. […] Thirty-six hours post transfection, cells were exposed for 30 min to either control isotonic conditions or hypotonic low [Cl^−] conditions (to activate the SPAK/OSR1 pathway), and then treated in the same conditions for an additional 30 min with 10 µM ZT-1a or 0.1 mM bumetanide (Bum) in the presence of 1 mM ouabain (Na^+/K^+-ATPase inhibitor). ^86Rb^+ uptake was allowed to proceed for 10 min and was then quantified by scintillation counting. ^86Rb^+ uptake CPMs were normalized per mg protein and plotted for both isotonic and hypotonic conditions. […] Thirty-six hours post transfection, cells were exposed for 30 min to either control isotonic conditions or hypotonic low [Cl^−] conditions (to activate the SPAK/OSR1 pathway), and then treated for an additional 30 min in the same conditions with the indicated ZT-1a concentrations in the presence of 1 mM ouabain. Ten-minute ^86Rb^+ uptake values were quantified by scintillation counting, normalized per mg protein for each condition, and plotted for both isotonic and hypotonic conditions. ***p < 0.001; **p < 0.01; *p < 0.05; ns—nonsignificant [by one-way ANOVA with post hoc testing (n = 6, error bars represent the mean ± SEM)].
This stimulating medium was then removed and replaced with isotonic medium containing inhibitors plus 2 µCi/ml ^86Rb^+. After incubation for 10 min at 37 °C, cells were rapidly washed three times with the respective ice-cold nonradioactive medium. Washed cells were lysed in 300 µl of ice-cold lysis buffer and ^86Rb^+ uptake was quantitated by liquid scintillation counting (PerkinElmer).

[15] = tested on: T1, SPAK–WNK1 interaction; assay: SPAK antibody pull-down / co-immunoprecipitation of WNK1 from HEK-293 cell lysates; format: binding, human; settings: for WNK1 co-immunoprecipitated with SPAK (band quantification): Fig S6
T1 construct: endogenous in cells; host or cells: HEK-293
Method: Supplemental Fig. 6 Evidence that SPAK associates with WNK1, and interaction is disrupted by ZT-1a and its analogs. Non-transfected HEK293 cell lysates were incubated with the RFQV peptide […]
ZT-1a for 30 min on ice and subjected to SPAK antibody immunoprecipitation. Immunoprecipitates were subjected to immunoblot probed with antibody to total WNK1 and antibody to total SPAK. Left panels: representative immunoblots. Right panels, summarized data quantitated by densitometry (n=3, means ± SEM; **,

[16] = compared with vehicle-control mice
[17] = post-stroke ZT-1a 5 mg/kg, 24 h reperfusion

SMILES: Cc1cc(C(C#N)c2ccc(Cl)cc2)c(Cl)cc1NC(=O)c1cc(Cl)ccc1O (stereo not shown) [ZT-1a, 5-chloro-N-(5-chloro-4-((4-chlorophenyl)(cyano)methyl)-2-methylphenyl)-2-hydroxybenzamide]
- KCC3 / Na-K pumb ([1]; CL hemisphere): 1.336 and 1.197 and 1.267 and 1.158 and 1.265 and 1.361
- pThr991 / KCC3 ([1]; CL hemisphere): 1.218 and 1.115 and 1.236 and 1.366 and 1.064 and 1.128
- pThr991 / Na-K pumb ([1]; CL hemisphere): 1.627 and 1.334 and 1.565 and 1.429 and 1.509 and 1.618
- pThr1048 / KCC3 ([1]; CL hemisphere): 1.138 and 0.971 and 0.993 and 1.217 and 1.116 and 0.937
- pThr1048 / Na-K pumb ([1]; CL hemisphere): 1.52 and 1.162 and 1.258 and 1.37 and 1.22 and 1.531
- KCC3 / Na-K pumb ([1]; IL hemisphere): 1.177 and 1.337 and 1.176 and 1.207 and 1.288 and 1.143
- pThr991 / KCC3 ([1]; IL hemisphere): 0.804 and 0.867 and 0.759 and 0.638 and 0.69 and 0.743
- pThr991 / Na-K pumb ([1]; IL hemisphere): 0.946 and 0.897 and 1.023 and 0.942 and 0.889 and 0.849
- pThr1048 / KCC3 ([1]; IL hemisphere): 0.646 and 0.719 and 0.618 and 0.673 and 0.737 and 0.686
- pThr1048 / Na-K pumb ([1]; IL hemisphere): 0.76 and 0.987 and 0.854 and 0.792 and 0.949 and 0.785
- reduction of ischemia-induced elevation of pKCC3 [1, 16]: 30%
- ischemia-induced increase of pKCC3 [1, 17]: prevented
- % residual kinase activity ([2]; 1 µM): 52±7%
- % residual kinase activity ([2]; 10 µM): 61±16%
- % residual kinase activity ([3]; 1 µM): 108±19%
- % residual kinase activity ([3]; 10 µM): 101±8%
- % residual kinase activity ([4]; 1 µM): 105±2%
- % residual kinase activity ([4]; 10 µM): 86±13%
- % residual kinase activity ([5]; 1 µM): 73±19%
- % residual kinase activity ([5]; 10 µM): 65±1%
- % residual kinase activity ([6]; 1 µM): 111±20%
- % residual kinase activity ([6]; 10 µM): 99±8%
- % residual kinase activity ([7]; 1 µM): 72±15%
- % residual kinase activity ([7]; 10 µM): 59±16%
- % residual kinase activity ([8]; 1 µM): 119±10%
- % residual kinase activity ([8]; 10 µM): 81±2%
- % residual kinase activity ([9]; 1 µM): 133±11%
- % residual kinase activity ([9]; 10 µM): 120±8%
- pGSK-3αβ/GAPDH (fold veh-CL) ([10]; CL): 1.03 fold veh-CL and 0.85 fold veh-CL and 1.10 fold veh-CL
- pGSK-3αβ/GAPDH (fold veh-CL) ([10]; IL): 1.40 fold veh-CL and 1.29 fold veh-CL and 1.07 fold veh-CL
- pGSK-3αβ/Na K pump (fold veh-CL) ([10]; CL): 1.04 fold veh-CL and 0.96 fold veh-CL and 1.12 fold veh-CL
- pGSK-3αβ/Na K pump (fold veh-CL) ([10]; IL): 0.94 fold veh-CL and 0.88 fold veh-CL and 0.90 fold veh-CL
- GSK-3β (p-GSK-3alpha/beta) phosphorylation in ischemic brain ([10]; ZT-1a-treated ischemic mouse brain, 5.0 mg/kg i.p., 24 h post reperfusion, 5 mg/kg): not inhibited; also recorded: no marked inhibition
- GSK-3β Ser9 phosphorylation ([11]; 3 µM ZT-1a, HEK-293 cells): not inhibited
- GSK3b pSer9 / Actin ([11]; ZT-1a 0.3 uM): 0.56 and 0.601 and 0.586 and 0.538
- GSK3b pSer9 / Actin ([11]; ZT-1a 1 uM): 0.58 and 0.576 and 0.603 and 0.529
- GSK3b pSer9 / Actin ([11]; ZT-1a 3 uM): 0.53 and 0.5901 and 0.613 and 0.56
- SPAK / Na-K pumb ([12]; CL hemisphere): 0.981 and 0.854 and 0.987 and 1.037 and 0.972 and 0.893
- pSer373 / SPAK ([12]; CL hemisphere): 1.177 and 1.25 and 1.197 and 1.217 and 1.153 and 1.09
- SPAK / Na-K pumb ([12]; IL hemisphere): 0.919 and 0.978 and 0.855 and 0.931 and 0.95 and 0.819
- pSer373 / SPAK ([12]; IL hemisphere): 0.773 and 0.739 and 0.598 and 0.674 and 0.62 and 0.668
- pSPAK pOSR1/Na K pump (fold veh-CL) ([12]; CL): 1.23 fold veh-CL and 0.84 fold veh-CL and 1.17 fold veh-CL and 1.58 fold veh-CL and 1.64 fold veh-CL
- pSPAK pOSR1/Na K pump (fold veh-CL) ([12]; IL): 1.24 fold veh-CL and 0.94 fold veh-CL and 0.88 fold veh-CL and 1.08 fold veh-CL and 0.87 fold veh-CL
- reduction of ischemia-induced elevation of pSPAK [12, 16]: 55–65%
- ischemia-induced increase of pSPAK/pOSR1 [12, 17]: prevented
- pERK/GAPDH (fold veh-CL) ([13]; Cytosol, CL, Fig S4d): 1.33 fold veh-CL and 1.29 fold veh-CL and 0.75 fold veh-CL
- pERK/Na K pump (fold veh-CL) ([13]; CL, Fig S4d): 1.45 fold veh-CL and 1.52 fold veh-CL and 1.76 fold veh-CL
- pERK/Na K pump (fold veh-CL) ([13]; IL, Fig S4d): 1.27 fold veh-CL and 2.10 fold veh-CL and 1.54 fold veh-CL
- p-ERK in ischemic brains ([13]; ZT-1a 5.0 mg/kg): no marked inhibition
- 86Rb+ uptake ([14]; Fig 3b right, NKCC1, ZT-1a 1 uM, Hypotonic low Cl-): 31312.2 and 30912.6 and 28110.4 and 29118.3 and 28103.5 and 29176.8
- 86Rb+ uptake ([14]; Fig 3b right, NKCC1, ZT-1a 1 uM, Isotonic control): 5076.2 and 4867.3 and 5812.7 and 4239.7 and 5129.6 and 5519.2
- 86Rb+ uptake ([14]; Fig 3b right, NKCC1, ZT-1a 3 uM, Hypotonic low Cl-): 14078.7 and 13156.2 and 15002.4 and 14182.5 and 14354.3 and 14621.6
- 86Rb+ uptake ([14]; Fig 3b right, NKCC1, ZT-1a 3 uM, Isotonic control): 3812.1 and 3286.7 and 4513.3 and 4013.5 and 3012.8 and 3586.3
- 86Rb+ uptake ([14]; Fig 3b right, NKCC1, ZT-1a 10 uM, Hypotonic low Cl-): 3712.6 and 5014.2 and 4381.3 and 3518.2 and 4604.5 and 3837.1
- 86Rb+ uptake ([14]; Fig 3b right, NKCC1, ZT-1a 10 uM, Isotonic control): 1476.7 and 1378.3 and 1409.2 and 1215.2 and 1522.8 and 1368.4
- 86Rb+ uptake ([14]; Fig 3b, NKCC1 + 1a (10 µM), Hypotonic low Cl-): 7709.2 and 9015.3 and 7102.3 and 8791.5 and 8682.5 and 8108.1
- 86Rb+ uptake ([14]; Fig 3b, NKCC1 + 1a (10 µM), Isotonic control): 1446.7 and 1247.2 and 1369.6 and 1195.7 and 1501.2 and 1382.8
- NKCC1-mediated K+ influx ([14]; ZT-1a at concentration > 1 µM, isotonic or hypotonic low Cl−): significantly inhibited
- WNK1 co-immunoprecipitated with SPAK (band quantification) ([15]; 10 uM): 0.445 and 0.402 and 0.4282 and 0.39
- WNK1 co-immunoprecipitated with SPAK (band quantification) ([15]; 30 uM): 0.176 and 0.186 and 0.196
- WNK1 co-immunoprecipitated with SPAK (band quantification) ([15]; 100 uM): 0.121 and 0.086 and 0.0911 and 0.105
- WNK1 co-immunoprecipitated with SPAK (band quantification) ([15]; 300 uM): 0.066 and 0.072 and 0.068 and 0.058
- WNK1 co-immunoprecipitated with SPAK (band quantification) ([15]; 1000 uM): 0.048 and 0.027 and 0.0332 and 0.031
- co-immunoprecipitation of WNK1 with SPAK ([15]; HEK-293 cell lysates, absence or presence of competitor peptide): abolished by ZT-1a more potently than by STOCK1S-50699 or by Closantel
